Patent publication US20240000872A1, “NOVEL BACTERIOPHAGE THAT LYSES ACINETOBACTER GENUS BACTERIA HAVING RESISTANCE TO ANTIBIOTICS” (priority 2020, published 2024)

Test system: Acinetobacter baumannii strains
Test: Antibiotic susceptibility test (CLSI disk diffusion test method, read per CLSI 2016)
Type: cell-based
Protocol: (§1) Strain identification was performed using a kit such as AT 32 GN system (bioMérieux, Marcy l'Etoile, France). […] In Table 2 below, S, I, and R are the results obtained by evaluating susceptibility to the antibacterial agents, in which ‘S’ means susceptible, ‘I’ means intermediate, and ‘R’ means resistant.
as §1, with “as ATB” for “as AT”, “system (bioMédrieux,” for “system (bioMérieux,”, “Table 6” for “Table 2”
as §1, with “as ATB” for “as AT”, “Table 10” for “Table 2”, “susceptible, T” for “susceptible, ‘I’”

CO/N=C(\C(=O)N[C@@H]1C(=O)N2C(C(=O)O)=C(COC(C)=O)CS[C@H]12)c1csc(N)n1 [Cefotaxime, cefotaxime]
S: antibiotic susceptibility S/I/R (host strain YMC17/02/B4864) | susceptibility category (S/I/R) (host strain YMC17/02/B4864)
I: susceptibility category (S/I/R) (host strain YMC16/03/R4461)
R: antibiotic susceptibility class (host strain YMC14/01/C29) | antibiotic susceptibility class (host strain YMC14/01/IP122) | antibiotic susceptibility class (host strain YMC14/01/L8) | antibiotic susceptibility class (host strain YMC14/01/P31) | antibiotic susceptibility class (host strain YMC14/01/P117) | antibiotic susceptibility class (host strain YMC14/01/P224) | antibiotic susceptibility class (host strain YMC14/01/P727) | antibiotic susceptibility class (host strain YMC14/01/P728) | antibiotic susceptibility class (host strain YMC14/01/R130) | antibiotic susceptibility class (host strain YMC14/01/R160) | antibiotic susceptibility class (host strain YMC14/01/R198) | antibiotic susceptibility class (host strain YMC14/01/R257) | antibiotic susceptibility class (host strain YMC14/01/R270) | antibiotic susceptibility class (host strain YMC14/01/R324) | antibiotic susceptibility class (host strain YMC14/01/R443) | antibiotic susceptibility class (host strain YMC14/01/R451) | antibiotic susceptibility class (host strain YMC14/01/R560) | antibiotic susceptibility class (host strain YMC14/01/R617) | antibiotic susceptibility class (host strain YMC14/01/R671) | antibiotic susceptibility class (host strain YMC14/01/R732) | antibiotic susceptibility class (host strain YMC14/01/R767) | antibiotic susceptibility class (host strain YMC14/01/R904) | antibiotic susceptibility class (host strain YMC14/01/R905) | antibiotic susceptibility class (host strain YMC14/01/R921) | antibiotic susceptibility class (host strain YMC14/01/R941) | antibiotic susceptibility class (host strain YMC14/01/R958) | antibiotic susceptibility class (host strain YMC14/01/R1006) | antibiotic susceptibility class (host strain YMC14/01/R1199) | antibiotic susceptibility class (host strain YMC14/01/R1659) | antibiotic susceptibility class (host strain YMC14/01/R1722) | antibiotic susceptibility class (host strain YMC14/01/R1752) | antibiotic susceptibility class (host strain YMC14/01/R2429) | antibiotic susceptibility class (host strain YMC14/01/R2572) | antibiotic susceptibility class (host strain YMC14/01/R2855) | antibiotic susceptibility class (host strain YMC14/01/R2945) | antibiotic susceptibility class (host strain YMC14/01/R3007) | antibiotic susceptibility class (host strain YMC14/01/R3129) | antibiotic susceptibility class (host strain YMC14/01/R3317) | antibiotic susceptibility class (host strain YMC14/01/R3474) | antibiotic susceptibility class (host strain YMC14/01/R3574) | antibiotic susceptibility class (host strain YMC14/01/U313) | antibiotic susceptibility class (host strain YMC14/01/U318) | antibiotic susceptibility class (host strain YMC14/02/L18) | antibiotic susceptibility class (host strain YMC14/02/P47) | antibiotic susceptibility class (host strain YMC14/02/R1860) | antibiotic susceptibility class (host strain YMC14/02/R2417) | antibiotic susceptibility class (host strain YMC14/02/R2599) | antibiotic susceptibility class (host strain YMC14/02/R2668) | antibiotic susceptibility class (host strain YMC14/02/R2758) | antibiotic susceptibility class (host strain YMC14/02/R2781) | antibiotic susceptibility class (host strain YMC14/02/R3106) | antibiotic susceptibility class (host strain YMC14/02/R3419) | antibiotic susceptibility class (host strain YMC14/02/U1607) | antibiotic susceptibility class (host strain YMC14/03/L9) | antibiotic susceptibility class (host strain YMC14/03/P471) | antibiotic susceptibility class (host strain YMC14/03/R122) | antibiotic susceptibility class (host strain YMC14/03/R217) | antibiotic susceptibility class (host strain YMC14/03/R380) | antibiotic susceptibility class (host strain YMC14/03/R618) | antibiotic susceptibility class (host strain YMC14/03/R2144) | antibiotic susceptibility class (host strain YMC14/03/U4616) | antibiotic susceptibility class (host strain YMC14/04/R1078) | antibiotic susceptibility class (host strain YMC14/04/R1080) | antibiotic susceptibility S/I/R (host strain YMC14/06/R2359) | susceptibility category (S/I/R) (host strain YMC14/06/R2359) | antibiotic susceptibility S/I/R (host strain YMC14/08/R1169) | susceptibility category (S/I/R) (host strain YMC14/08/R1169) | antibiotic susceptibility S/I/R (host strain YMC14/08/T90) | susceptibility category (S/I/R) (host strain YMC14/08/T90) | antibiotic susceptibility S/I/R (host strain YMC15/02/R436) | susceptibility category (S/I/R) (host strain YMC15/02/R436) | antibiotic susceptibility S/I/R (host strain YMC15/02/T28) | susceptibility category (S/I/R) (host strain YMC15/02/T28) | antibiotic susceptibility S/I/R (host strain YMC15/03/R1604) | susceptibility category (S/I/R) (host strain YMC15/03/R1604) | antibiotic susceptibility S/I/R (host strain YMC15/09/R1869) | susceptibility category (S/I/R) (host strain YMC15/09/R1869) | antibiotic susceptibility S/I/R (host strain YMC16/01/P11) | susceptibility category (S/I/R) (host strain YMC16/01/P11) | antibiotic susceptibility S/I/R (host strain YMC16/01/R123) | susceptibility category (S/I/R) (host strain YMC16/01/R123) | antibiotic susceptibility S/I/R (host strain YMC16/01/R198) | susceptibility category (S/I/R) (host strain YMC16/01/R198) | antibiotic susceptibility S/I/R (host strain YMC16/01/R353) | susceptibility category (S/I/R) (host strain YMC16/01/R353) | antibiotic susceptibility S/I/R (host strain YMC16/01/R380) | susceptibility category (S/I/R) (host strain YMC16/01/R380) | antibiotic susceptibility S/I/R (host strain YMC16/01/R397) | susceptibility category (S/I/R) (host strain YMC16/01/R397) | antibiotic susceptibility S/I/R (host strain YMC16/01/R405) | susceptibility category (S/I/R) (host strain YMC16/01/R405) | antibiotic susceptibility S/I/R (host strain YMC16/05/R2210) | susceptibility category (S/I/R) (host strain YMC16/05/R2210) | antibiotic susceptibility S/I/R (host strain YMC16/07/R2512) | susceptibility category (S/I/R) (host strain YMC16/07/R2512) | antibiotic susceptibility S/I/R (host strain YMC16/09/R2471) | susceptibility category (S/I/R) (host strain YMC16/09/R2471) | antibiotic susceptibility S/I/R (host strain YMC16/10/R2537) | susceptibility category (S/I/R) (host strain YMC16/10/R2537) | antibiotic susceptibility S/I/R (host strain YMC16/12/B11422) | susceptibility category (S/I/R) (host strain YMC16/12/B11422) | antibiotic susceptibility S/I/R (host strain YMC16/12/B11449) | susceptibility category (S/I/R) (host strain YMC16/12/B11449) | antibiotic susceptibility S/I/R (host strain YMC16/12/B13325) | susceptibility category (S/I/R) (host strain YMC16/12/B13325) | antibiotic susceptibility S/I/R (host strain YMC16/12/P503) | susceptibility category (S/I/R) (host strain YMC16/12/P503) | antibiotic susceptibility S/I/R (host strain YMC16/12/R4637) | susceptibility category (S/I/R) (host strain YMC16/12/R4637) | antibiotic susceptibility S/I/R (host strain YMC17/01/B8053) | susceptibility category (S/I/R) (host strain YMC17/01/B8053) | antibiotic susceptibility S/I/R (host strain YMC17/01/B10087) | susceptibility category (S/I/R) (host strain YMC17/01/B10087) | antibiotic susceptibility S/I/R (host strain YMC17/01/B12075) | susceptibility category (S/I/R) (host strain YMC17/01/B12075) | antibiotic susceptibility S/I/R (host strain YMC17/01/B13454) | susceptibility category (S/I/R) (host strain YMC17/01/B13454) | antibiotic susceptibility S/I/R (host strain YMC17/01/P518) | susceptibility category (S/I/R) (host strain YMC17/01/P518) | antibiotic susceptibility S/I/R (host strain YMC17/01/R2812) | susceptibility category (S/I/R) (host strain YMC17/01/R2812) | antibiotic susceptibility S/I/R (host strain YMC17/02/B14) | susceptibility category (S/I/R) (host strain YMC17/02/B14) | antibiotic susceptibility S/I/R (host strain YMC17/02/B87) | susceptibility category (S/I/R) (host strain YMC17/02/B87) | antibiotic susceptibility S/I/R (host strain YMC17/02/B721) | susceptibility category (S/I/R) (host strain YMC17/02/B721) | antibiotic susceptibility S/I/R (host strain YMC17/02/B4039) | susceptibility category (S/I/R) (host strain YMC17/02/B4039) | antibiotic susceptibility S/I/R (host strain YMC17/02/B4520) | susceptibility category (S/I/R) (host strain YMC17/02/B4520) | antibiotic susceptibility S/I/R (host strain YMC17/02/B8414) | susceptibility category (S/I/R) (host strain YMC17/02/B8414) | antibiotic susceptibility S/I/R (host strain YMC17/02/P523) | susceptibility category (S/I/R) (host strain YMC17/02/P523) | antibiotic susceptibility S/I/R (host strain YMC17/02/R541) | susceptibility category (S/I/R) (host strain YMC17/02/R541) | antibiotic susceptibility S/I/R (host strain YMC17/02/R2392) | susceptibility category (S/I/R) (host strain YMC17/02/R2392) | antibiotic susceptibility S/I/R (host strain YMC17/03/B4730) | susceptibility category (S/I/R) (host strain YMC17/03/B4730) | antibiotic susceptibility S/I/R (host strain YMC17/03/B5000) | susceptibility category (S/I/R) (host strain YMC17/03/B5000) | antibiotic susceptibility S/I/R (host strain YMC17/03/P971) | susceptibility category (S/I/R) (host strain YMC17/03/P971) | antibiotic susceptibility S/I/R (host strain YMC17/03/R348) | susceptibility category (S/I/R) (host strain YMC17/03/R348) | antibiotic susceptibility S/I/R (host strain YMC17/03/R585) | susceptibility category (S/I/R) (host strain YMC17/03/R585) | antibiotic susceptibility S/I/R (host strain YMC17/03/R1888) | susceptibility category (S/I/R) (host strain YMC17/03/R1888) | antibiotic susceptibility S/I/R (host strain YMC17/03/R3279) | susceptibility category (S/I/R) (host strain YMC17/03/R3279) | antibiotic susceptibility S/I/R (host strain YMC17/03/R4077) | susceptibility category (S/I/R) (host strain YMC17/03/R4077) | antibiotic susceptibility S/I/R (host strain YMC17/03/R4607) | susceptibility category (S/I/R) (host strain YMC17/03/R4607) | antibiotic susceptibility S/I/R (host strain YMC17/04/R488) | susceptibility category (S/I/R) (host strain YMC17/04/R488) | antibiotic susceptibility S/I/R (host strain YMC17/04/R640) | susceptibility category (S/I/R) (host strain YMC17/04/R640) | antibiotic susceptibility S/I/R (host strain YMC/17/05/R1095) | susceptibility category (S/I/R) (host strain YMC/17/05/R1095)
